Data on four compounds can be found in patent publication US11026936B2, “Piperidinyl-propanone derivatives” (Merck Patent GmbH, priority 2016, dated 2021).

The test system of assay [1] is PDH-E1alpha (pSer300) in HEK293T cells. Briefly: Cellular immunofluorescence assay, PDH-E1alpha (pSer300). The format is cell-based. To be noted: Homo sapiens, HEK-293T, 5 hours incubation, read-out: IC50 (cell data). As to the method:
Cellular Assay for Determination of Compound Activities
Compound activities were determined in a cellular immunofluorescence assay. Human HEK293T cells were seeded into black 384-well plates with clear bottom and grown overnight.
Next day, test compounds were added to the wells and the plates incubated for 5 hours. Following this, cells were fixed with formaldehyde, permeabilised and blocked. The primary antibody, Anti-PDH-E1alpha (pSer300), AP1064 (Merck Millipore) was added and incubated overnight in the plate wells. Next, cells were washed and the seconday antibody, Alexa Fluor 488, goat anti-rabbit ab (A-11008, Invitrogen) was added together with Hoechst 33258 (H3569, Invitrogen) and incubated for 1 hour in the plate wells. Finally, cells were washed and the plates were measured on the laser scanning cytometer acumen hci (TTpLabtech).
The raw data were normalized against a pharmacological inhibitor control and dose response curves were generated by plotting the percent effect values using the software package Genedata screener (Genedata).

In a further assay the target is PDHK2 (Homo sapiens (Human), UniProt Q15119). Put plainly: Biochemical activity testing of PDHK2: PDC inactivation assay. To be noted: human rec PDHK2, PDC from porcine heart, ATP 5 μM; read-out: IC50 PDHK2 (enzyme assay). An excerpt: Biochemical Activity Testing of PDHK2: PDC Inactivation Assay
The biochemical activity assay for PDHK2 is based on the inactivation of PDC through phosphorylation by PDHK2. The assay is run in two steps: the enzymatic PDHK2 reaction in which isolated PDC is phosphorylated by PDHK2 with ATP as co-substrate and the PDC activity assay in which pyruvate and NAD are converted to acetyl-CoA and NADH. The PDC activity correlates to the increase in NADH and thereby is detectable directly via the increasing fluorescence signal (Exc 340 nm, Em 450 nm). Inhibition of PDHK2 results in a lower phosphorylation status and thereby a less decrease in activity of PDC and a stronger increase in NADH fluorescence signal.
The PDC inactivation assay is performed in Greiner 384-well microtiter plates and is used for high throughput screen. 4 μl of PDHK2 (human, rec, Carna Bioscience, 10 ng/μl-137 nM final concentration) and PDC (isolated from porcine heart, Sigma-Aldrich, 20 mU/ml final concentration) are incubated in the absence or presence of the test compound (10 dilution concentrations) for 30 min at room temperature in kinase buffer (15 mM potassium phosphate buffer, pH 7.0, 60 mM KCl, 1.5 mM DTT, 2.5 mM MgCl2, 0.0125% (w/v) BSA, 0.125% Pluronic F-68). The kinase reaction is started by the addition of 4 μl ATP substrate solution (fc 5 μM in kinase buffer). After 30 min incubation at 37° C. 40 μl of PDC reaction solution (100 mM Tris/HCl, pH 7.8, 0.5 mM EDTA, 1 mM MgCl2, 50 mM NaF, 0.25 mM Coenzyme A, 5 mM pyruvate, 1 mM NAD, 5 mM DTT, 1 mM thiamine pyrophosphate) is added. The first fluorescence measurement is performed on a Perkin Elmer Envision (Exc 340 nm, Em 450 nm). The reaction is incubated for 45 min at room temperature. Afterwards a second fluorescence measurement is performed and the PDC activity is calculated by the difference between both measurements. As full value for the PDHK2 assay the inhibitor-free PDHK2 reaction is used. The pharmacological zero value used is DCA (Sigma-Aldrich) in a final concentration of 3 mM. The inhibitory values (IC50) were determined using either the program Symyx Assay Explorer® or Condosseo® from GeneData.

Another assay addresses human PDHK2 (12-407) (Homo sapiens (Human), UniProt Q15119). Briefly: Isothermal titration calorimetry (ITC) binding. To be noted: 30° C., pH 7.5. As to the method:
Isothermal Titration Calorimetry
ITC measurements were performed with a VP-ITC micro calorimeter (Microcal, LLC/GE Healthcare Bio-Sciences AB, Uppsala, Sweden). In general titrations were performed by titrating the protein (50 μM) to the test compound (5 μM) in 12 μl injections. All binding experiments were carried out at 30° C. In general the test compounds were diluted form DMSO stock solutions into the measurement buffer with a maximum final concentration of 1% DMSO. The measurement buffer was 20 mM HEPES, 135 mM KCl, 1 mM TCEP, 2 mM MgCl2, 15 mM NaH2PO4, pH 7.5. The human PDHK2 (12-407) was produced in E. coli as his-tagged protein and purified by affinity chromatography. The tag was removed by side specific proteolysis. Before titration the protein buffer was changed to the measurement buffer containing the same DMSO concentration as the test compound dilution. ITC data analysis was performed using Origin 7 calorimetry software from the same supplier. For most measurements a binding model of one binding site was assumed. According to the applied mathematical model it is possible to calculate the binding constant (KA), the observed binding enthalpy (ΔH^obs) as well as the stoichiometry (N) of the formed complex. Preceding analysis the raw data was corrected for the heats of dilution by extrapolating from the saturation value from the end of titration. In order to allow for direct comparison between the respective experimental series and protein preparations the protein concentration was corrected by referencing titrations to a well behaved standard inhibitor. The apparent stoichiometry values defined the fraction of binding competent protein and compensated for relative errors in protein concentration measurements. This corrected protein concentration was used to set up ITC experiment series with test compounds. Any deviations from ideal 1:1 stoichiometry observed here were attributed to errors in compound concentration. This nominal compound concentration was corrected as well to achieve 1:1 stoichiometry in the fit.
A general note: Isothermal titration calorimetry measures the heat released or taken up as one component is titrated into another.

Usually IC50 stands for the midpoint of a concentration-inhibition curve. For orientation: Kd means the equilibrium constant for the complex coming apart.

Consider `COc1ccc(-c2nnc(C3([C@H]4CCN(C(=O)[C@@](C)(O)C(F)(F)F)C[C@H]4C)CC3)o2)cc1` [Compound A31, (R)-3,3,3-Trifluoro-2-hydroxy-1-((3S,4S)-4-{1-[5-(4-methoxy-phenyl)-[1,3,4]oxadiazol-2-yl]-cyclopropyl}-3-methyl-piperidin-1-yl)-2-methyl-propan-1-one], for which the IC50 came to 17 nM in assay [1] and 180 nM on PDHK2. The compound also returned a Kd on human PDHK2 (12-407) of 3.6 nM.

With `C[C@@](O)(C(=O)N1CCC(C2(c3nnc(-c4ccccc4)o3)CC2)CC1)C(F)(F)F` [Compound A5, (R)-3,3,3-Trifluoro-2-hydroxy-2-methyl-1-{4-[1-(5-phenyl-[1,3,4]oxadiazol-2-yl)-cyclopropyl]-piperidin-1-yl}-propan-1-one], the IC50 in assay [1] came to 1500 nM; on PDHK2, 440 nM. Besides, the Kd at human PDHK2 (12-407) is 200 nM.

As for `C[C@@H]1CN(C(=O)[C@@](C)(O)C(F)(F)F)CC[C@@H]1C1(c2nnc(-c3ccccc3)[nH]2)CC1` [Compound A14, (R)-3,3,3-Trifluoro-2-hydroxy-2-methyl-1-{(3S,4S)-3-methyl-4-[1-(5-phenyl-4H-[1,2,4]triazol-3-yl)-cyclopropyl]-piperidin-1-yl}-propan-1-one], the IC50 in assay [1] was found to be 19 nM; on PDHK2, 130 nM. This compound registered a Kd at human PDHK2 (12-407) of under 2 nM.

Take `C[C@@](O)(C(=O)N1CCC(C2(c3nnc(-c4ccc(F)cc4)o3)CC2)CC1)C(F)(F)F` [Compound A6, (R)-3,3,3-Trifluoro-1-{4-{1-[5-(4-fluoro-phenyl)-[1,3,4]oxadiazol-2-yl]-cyclopropyl}-piperidin-1-yl}-2-hydroxy-2-methyl-propan-1-one]: the IC50 in assay [1] turned out to be 2000 nM; at PDHK2, 500 nM. Binding at human PDHK2 (12-407) was characterised by a dissociation constant (Kd) of 270 nM.
